Assay results taken from patent publication US5264209A, “Modified HIL-6” (Kirin-Amgen, Inc., priority 1990, dated 1993).

How the values were obtained:
[1] = system: platelets in peripheral blood; experiment: In vivo platelet production in mice, once a day for five days (Examples 13 and 16); set-up: species or system Balb/c mice; settings: sixth day
Procedure: (§1) In Examples 7-10 and 13-17, the PEGylated hIL-6 polypeptides of the present invention were dissolved in PBS containing 0.1% normal mouse serum. The concentration of the solutions was adjusted so that the final volume administered was 100 μl.
The hIL-6 produced in Example 4 or its PEGylated derivatives produced in Examples 11 and 12 were administered subcutaneously to four Balb/c mice (8 weeks old, female) once a day for five days. Control mice were administered with the vehicle. Blood samples were taken on the sixth day and platelets in peripheral blood were counted.
The PEGylated hIL-6 Fr120'-2 was administered to five mice once a day for five days at a dose of 1 μg/mouse and blood samples were taken on the sixth day as described in Example 13.

[2] = Acute toxicity (Example 17); type: in vivo, Balb/c mice; settings: for deaths during the ten day period after the administration: 1, 5, or 10 mg/kg s.c.; for acute LD50: s.c., ten day observation, 14400 min
Procedure: as §1
The acute toxicity of PEGylated hIL-6 was investigated. The hIL-6 of Example 4 or its PEGylated derivatives (Fr45-2, Fr100-2, and Fr120-2), produced in Examples 4, 11, and 12, were administered subcutaneously to five Balb/c mice (6 weeks old, male, 21-23 g weight) at a dose of either 1, 5, or 10 mg/kg weight (as polypeptide).

[3] = Castell et al. 1988; cited from earlier work
[4] = Table 7, 0.1 μg/mouse/injection s.c. once a day for five days
[5] = Table 7, 0.5 μg/mouse/injection s.c. once a day for five days
[6] = Table 7, 1 μg/mouse/injection s.c. once a day for five days
[7] = Table 7, 5 μg/mouse/injection s.c. once a day for five days
[8] = Table 7, 10 μg/mouse/injection s.c. once a day for five days
[9] = Table 6, 0.5 μg/mouse/injection s.c. once a day for five days
[10] = Table 6, 1 μg/mouse/injection s.c. once a day for five days
[11] = Table 6, 5 μg/mouse/injection s.c. once a day for five days
[12] = Table 6, 10 μg/mouse/injection s.c. once a day for five days

Substance	Number of platelets (% of control) [1, 4]	Number of platelets (% of control) [1, 5]	Number of platelets (% of control) [1, 6]	Number of platelets (% of control) [1, 7]	Number of platelets (% of control) [1, 8]	deaths during the ten day period after the administration [2]	acute LD50 [2]	Number of platelets (% of control) [1, 9]	Number of platelets (% of control) [1, 10]	Number of platelets (% of control) [1, 11]	Number of platelets (% of control) [1, 12]	in vivo half-life in blood [3]
Fr120-2: fraction of PEG(12000)IL-6, average 7.6 free amino groups per molecule	167.4 % of control	227.8 % of control	233.2 % of control	244.3 % of control	213.2 % of control	None of the mice was observed to die	over 10 mg/kg weight					
Fr100-2: fraction of PEG(10000)IL-6, average 7.4 free amino groups per molecule						None of the mice was observed to die	over 10 mg/kg weight	107.9 % of control	148.9 % of control	205.9 % of control	250.8 % of control	
Fr100-1: fraction of PEG(10000)IL-6, average 5.3 free amino groups per molecule									100.0 % of control		211.1 % of control	
Fr100-3: fraction of PEG(10000)IL-6, average 8.6 free amino groups per molecule								113.7 % of control	141.1 % of control	212.7 % of control	204.4 % of control	
Fr120-4: fraction of PEG(12000)IL-6, average 9.2 free amino groups per molecule	161.5 % of control	203.4 % of control	221.4 % of control	229.0 % of control	200.4 % of control							
IL-6: interleukin-6, multi-functional cytokine												very short
Fr100-4: fraction of PEG(10000)IL-6, average 9.4 free amino groups per molecule								138.7 % of control	142.5 % of control	226.5 % of control	203.2 % of control	
Fr120-3: fraction of PEG(12000)IL-6, average 8.7 free amino groups per molecule	170.1 % of control	205.9 % of control	242.7 % of control	243.1 % of control	221.4 % of control							
Fr120-1: fraction of PEG(12000)IL-6, average 5.2 free amino groups per molecule	141.3 % of control	215.5 % of control	221.5 % of control	246.3 % of control	201.3 % of control							
Fr100-5: fraction of PEG(10000)IL-6, average 10.0 free amino groups per molecule								111.3 % of control	142.8 % of control	225.9 % of control	202.4 % of control	
Fr120-5: fraction of PEG(12000)IL-6, average 9.8 free amino groups per molecule	154.1 % of control	191.5 % of control	225.4 % of control	224.8 % of control	235.9 % of control							
